In US20230066648A1, “METHOD FOR INDUCING TRANSDIFFERENTIATION OF SOMATIC CELLS INTO MAMMARY EPITHELIAL CELLS IN VITRO USING SMALL MOLECULE COMPOUND” (GUANGXI UNIVERSITY, priority 2019, published 2023):
Entries after “also recorded” stand apart in the source; their conditions may differ.

System: ear margin fibroblasts (GEFs) of goat
Experiment: induction of transdifferentiation of fibroblasts into mammary epithelial cells with induction medium, cell morphology
Type: cell-based
Details: for transdifferentiation of fibroblasts into mammary epithelial cells with the inhibitor alone: 8 d, 10 μM SB431542, 5 μM SB525334, 1 μM LDN193189 induction medium alone
Procedure: 1. The ear margin fibroblasts (GEFs) of goat were isolated and cultured by a tissue adherence method to provide cell materials for subsequent induction.
2. The fibroblasts were inoculated into a 60 mm cell culture dish at a density of 5×10^5, and after culturing for 8 h to 24 h in the high-glucose DMEM+10% FBS (volume percentage), the induction medium BFRTV was replaced, and then cultured at 37° C. for 8 d in a 5% CO2 incubator, where the medium was changed every two days.
3. When cultured to the 8th day, CiMECs can be subcultured and inoculated onto a plate pretreated with Matrix (a volume ratio of Matrix to gelatin was 1:50), and then cultured in a mammary epithelial cell medium, when the cell confluence reached about 90%, the cells were subcultured or frozen for subsequent detection.
Taking the ear margin fibroblasts of Guanzhong dairy goat as an experimental object, the concentration of five small molecule compounds currently used was adjusted, and the concentration of BFRTV was adjusted as a whole under the condition that the basal solution remained unchanged.

SMILES	transdifferentiation of fibroblasts into mammary epithelial cells with the inhibitor alone	induction of mammary epithelial cells with Repsox alone (R induction medium) (R induction medium, no other small molecule)
c1ccc2c(-c3cnn4cc(-c5ccc(N6CCNCC6)cc5)cnc34)ccnc2c1 [LDN193189]	the fibroblasts can be induced into mammary epithelial cells; also recorded: could still induce the transdifferentiation of fibroblasts into mammary epithelial cells	–
Cc1cccc(-c2[nH]ncc2-c2ccc3ncccc3n2)n1 [Repsox]	–	mammary epithelial cells (CiMECs) similar to those by BFRTV induction medium were obtained
NC(=O)c1ccc(-c2nc(-c3ccc4c(c3)OCO4)c(-c3ccccn3)[nH]2)cc1 [SB431542]	the fibroblasts can be induced into mammary epithelial cells; also recorded: could still induce the transdifferentiation of fibroblasts into mammary epithelial cells	–
Cc1cccc(-c2[nH]c(C(C)(C)C)nc2-c2ccc3nccnc3c2)n1 [SB525334]	the fibroblasts can be induced into mammary epithelial cells; also recorded: could still induce the transdifferentiation of fibroblasts into mammary epithelial cells	–
